Experimental data published in US20190046552A1, “COMPOSITIONS AND METHODS FOR THE TREATMENT OF HCV INFECTION” (priority 2015, published 2019).
Like-named read-outs stand apart in the source and are kept apart here.

Key:
[1] = Part A (SAD): plasma PK of Formula (IIa) and its metabolites after a single oral dose of Formula (IIa), fed or fasted; type: in vivo, human; settings: for Cmax / AUC(0-t) / Tmax / AUC(0-inf) / half-life: human, in vivo; for Cmax / AUC(0-t) / Tmax: po
Method: The study was a Phase 1, two-part, first-in-human study of single (Part A) and multiple (Part B) ascending doses (SAD and MAD) of Formula (IIa) at doses of 100-900 mg given as a monotherapy for up to 7 days. Subjects were enrolled at multiple sites in Australia and New Zealand. For both Parts A and B, the Safety Review Committee (SRC) determined whether dose escalation occurred after review of all safety data and any available PK/PD data. Part A was an open label, randomized SAD study consisting of four cohorts of two subjects each, with one subject randomized to be dosed in the fed state and the other in the fasted state, at doses of 100 mg to 800 mg Formula (IIa). All subjects were given a single dose of Formula (IIa) orally.
All plasma PK calculations were performed using actual time points calculated relative to the time of last drug administration.
PK analysis was conducted for all enrolled subjects that received any dose of Formula (IIa) with sufficient plasma sample data to assess PK parameters. […] Data analysis was performed using a validated version of WinNonlin® Enterprise (Version 5.2) software, and summary tables and figures were generated using a validated version of WinNonlin® Autopilot™ (Version 1.1.1) and other reporting tools, including SigmaPlot®.

[2] = tested on: HCV from sera of patients infected with resistant strains; assay: Capture fusion assay: THP-1 cells infected with patient serum, fused with Huh7.5, HCV RNA by PCR; type: cell-based; settings: for IC50: Hepatitis C virus
Method: Serum samples were taken from 30 patients who had either responded to or previously failed treatment with combination peg-interferon/ribavirin and a direct acting antiviral (DAA), e.g., sofosbuvir and ledipasvir, or DAA treatment alone (FIG. 16). The anti-HCV activity of Formula (IIa) was assessed using the capture fusion assay. Briefly, pre-stimulated THP-1 cells were infected with serum from donors chronically infected with the common HCV genotypes G1 or G3, or from patients infected with the less prevalent G2, G4 or G6 HCV. The hybrid cells were treated once with a range of concentrations of Formula (IIa). For comparison, fused cells infected with G1 and G3 sera were treated with telaprevir or alisporivir. The cells were cultured for 5 days, before quantification of HCV RNA by PCR. Dose-response curves were used to calculate IC50 values for each experiment. The detailed assay protocol is outlined below.
Huh7.5 and Huh7 cells were maintained in Dulbecco's modified Eagle medium with glutamine supplemented with 10% fetal calf serum and 1% penicillin/streptomycin (DMEM/10% FCS/PS). THP-1 cells were maintained in RPMI with glutamine supplemented with 10% fetal calf serum and 1% penicillin/streptomycin (RPMI/10% FCS/PS). Peripheral blood mononuclear cells (PBMC) and sera were obtained from patients with chronic HCV infection, with informed consent. Cytokines used were phorbol 12-myristate 13-acetate (PMA, Sigma-Aldrich, Dorset, UK), IFNγ (Invitrogen, Paisley, UK) and osteopontin (R&D Systems, Abingdon, UK). Primary antibodies used were anti-albumin (Dako, Glostrup, Denmark), anti-CD81 (BD Biosciences, Oxford, UK), anti-SR-B1 (Novus Biologicals, Cambridge, UK), anti-CD32 and anti-CD64 (Abcam, Cambridge, UK). Mouse IgG1 isotype control was purchased from Biolegend UK (London, UK). Fluorescent secondary antibodies AlexaFluor488 and 594 anti-sheep, anti-mouse and anti-rabbit IgG were purchased from Invitrogen.
PBMCs were separated from whole blood by centrifugation on Ficoll-Paque. The PBMC layer was washed twice before positive selection of CD14+ cells by magnetic separation. Huh7.5 cells were trypsinized and combined with CD14+ cells at a 1:1 ratio. After removal of all supernatant, the cell pellet was slowly resuspended in prewarmed polyethylene glycol 1500 (Roche Diagnostics, Burgess Hill, UK). After incubation at 37° C. for 2 minutes, prewarmed medium (DMEM/10% FCS/PS) was added dropwise and the cells washed by centrifugation. The fused cells were seeded into 6 well plates at a density of 5×10^5 cells/mL and maintained at 37° C. until RNA extraction.
THP-1 cells were seeded into 6 well plates at a density of 10^6 cells/mL and maintained in RPMI supplemented with 10% fetal calf serum and 1% penicillin/streptomycin (RPMI/10% FCS/1% PS) for 18 hours, with or without the addition of cytokines. The cells were washed three times and the medium replaced with RPMI/2% FCS and patient serum at a ratio of 1 HCV copy per cell. For antibody blocking experiments, cells were incubated with blocking antibody at 37° C. for one hour before addition of patient serum. After incubation at 37° C. for 18-24 hours, the supernatant was removed and cells were washed three times. Adherent cells were removed using a cell scraper and Huh7.5 cells added at a 1:1 ratio. Cell fusion was performed as described above. The fused cells were seeded into 6 well plates at a density of 10^5 cells/mL and maintained at 37° C. in the presence or absence of antiviral drugs for up to 7 days. In selected experiments, supernatants were pooled from non-drug treated wells and concentrated on a sucrose gradient. In brief, the pooled supernatants were filtered through a 0.45 μm filter then 10 mL of each was layered on 4 mL 20% sucrose. The supernatants were centrifuged at 24,000×g for 2 hours and the resulting pellet resuspended in 1 mL RPMI. […]

## CO[C@H]1C(OP(=O)(OC[C@H]2O[C@@H](n3cnc4c(N)ncnc43)CC2O)SCOC(=O)OC(C)C)[C@@H](CO)O[C@H]1n1ccc(=O)[nH]c1=O (stereo partly shown) [Formula (IIa)]
[1]; 200 mg, single oral 200 mg Formula (IIa), fasted, plasma, N=1
  Cmax: 0.577 ng/mL
[1]; 200 mg, single oral 200 mg Formula (IIa), fasted, plasma, N=1, read-out: AUC0-24
  AUC(0-t): 0.433 ng·h/mL
[1]; 200 mg, single oral 200 mg Formula (IIa), fasted, plasma, N=1, read-out: AUC0-t
  AUC(0-t): 0.289 ng·h/mL
[1]; 200 mg, single oral 200 mg Formula (IIa), fasted, plasma, N=1, read-out: Tmax
  Tmax: 1 h
[1]; 200 mg, single oral 200 mg Formula (IIa), fed, plasma, N=1
  Cmax: 0.261 ng/mL
[1]; 200 mg, single oral 200 mg Formula (IIa), fed, plasma, N=1, read-out: AUC0-24
  AUC(0-t): 0.131 ng·h/mL
[1]; 200 mg, single oral 200 mg Formula (IIa), fed, plasma, N=1, read-out: AUC0-t
  AUC(0-t): 0.0653 ng·h/mL
[1]; 200 mg, single oral 200 mg Formula (IIa), fed, plasma, N=1, read-out: Tmax
  Tmax: 2 h
[1]; 400 mg, single oral 400 mg Formula (IIa), fasted, plasma, N=1
  Cmax: 1.16 ng/mL
[1]; 400 mg, single oral 400 mg Formula (IIa), fasted, plasma, N=1, read-out: AUC0-24
  AUC(0-t): 1.37 ng·h/mL
[1]; 400 mg, single oral 400 mg Formula (IIa), fasted, plasma, N=1, read-out: AUC0-t
  AUC(0-t): 1.31 ng·h/mL
[1]; 400 mg, single oral 400 mg Formula (IIa), fasted, plasma, N=1, read-out: Tmax
  Tmax: 2.5 h
[1]; 400 mg, single oral 400 mg Formula (IIa), fed, plasma, N=1
  Cmax: 0.574 ng/mL
[1]; 400 mg, single oral 400 mg Formula (IIa), fed, plasma, N=1, read-out: AUC0-24
  AUC(0-t): 1.13 ng·h/mL
[1]; 400 mg, single oral 400 mg Formula (IIa), fed, plasma, N=1, read-out: AUC0-t
  AUC(0-t): 1.07 ng·h/mL
[1]; 400 mg, single oral 400 mg Formula (IIa), fed, plasma, N=1, read-out: Tmax
  Tmax: 1.5 h
[1]; 800 mg, single oral 800 mg Formula (IIa), fasted, plasma, N=1
  Cmax: 0.734 ng/mL
[1]; 800 mg, single oral 800 mg Formula (IIa), fasted, plasma, N=1, read-out: AUC0-24
  AUC(0-t): 0.809 ng·h/mL
[1]; 800 mg, single oral 800 mg Formula (IIa), fasted, plasma, N=1, read-out: AUC0-t
  AUC(0-t): 0.751 ng·h/mL
[1]; 800 mg, single oral 800 mg Formula (IIa), fasted, plasma, N=1, read-out: Tmax
  Tmax: 1 h
[1]; 800 mg, single oral 800 mg Formula (IIa), fed, plasma, N=1
  Cmax: 0.486 ng/mL
[1]; 800 mg, single oral 800 mg Formula (IIa), fed, plasma, N=1, read-out: AUC0-24
  AUC(0-t): 0.96 ng·h/mL
[1]; 800 mg, single oral 800 mg Formula (IIa), fed, plasma, N=1, read-out: AUC0-t
  AUC(0-t): 0.9 ng·h/mL
[1]; 800 mg, single oral 800 mg Formula (IIa), fed, plasma, N=1, read-out: Tmax
  Tmax: 1.5 h
[1]; single oral Formula (IIa), subjects dosed under fasted conditions, read-out: Individual Tmax range
  Tmax: 1 to 2.5 h
[1]; single oral Formula (IIa), subjects dosed under fed conditions, read-out: Individual Tmax range
  Tmax: 1.5 to 2 h
[1]; single oral 400 mg Formula (IIa), fed, plasma, N=1
  AUC(0-inf): 1.43 ng·h/mL
[1]; single oral 400 mg Formula (IIa), fed, plasma, N=1, read-out: t1/2 (converted)
  half-life: 1.16 h
[1]; single oral 800 mg Formula (IIa), fed, plasma, N=1
  AUC(0-inf): 1.39 ng·h/mL
[1]; single oral 800 mg Formula (IIa), fed, plasma, N=1, read-out: t1/2 (converted)
  half-life: 1.42 h
[1]; two fed subjects (400 mg and 800 mg dose cohorts), read-out: half-life (terminal phase), range
  half-life: 1.16 to 1.42 h
[1]; single oral 100 mg Formula (IIa), fasting and fed
  measurable Formula (IIa) concentrations in plasma: no measurable Formula (IIa) concentrations
[1]; single oral 200 mg Formula (IIa)
  AUC0-t in the fasted subject higher than the fed subject: 4 fold
[1]; single oral 400 mg Formula (IIa)
  peak plasma concentrations in the fasted subjects, times higher compared to the fed subjects: 2.0 times
[1]; single oral 800 mg Formula (IIa)
  peak plasma concentrations in the fasted subjects, times higher compared to the fed subjects: 1.5 times
[1]; single oral dose levels of 100 mg and 200 mg
  measurable concentrations of Formula (IIa) in plasma: did not produce measurable concentrations
[2]; five selected patient samples with NS5A mutations (Example 4, FIGS. 18A-18E), read-out: IC50 range
  IC50: ≥ 0.001 µM
[2]; genotype 3, genotype 3, treatment experienced group, mean±sem
  IC50: 0.022 µM
[2]; genotype 3, genotype 3, treatment naive group, mean±sem, read-out: IC50
  IC50: 0.026 ± 0.007 µM
[2]; patient sample post-peg/RBV treatment, read-out: IC50
  IC50: 0.455 µM
[2]; patient sample pre-peg/RBV treatment, read-out: IC50
  IC50: 0.45 µM
[2]; sample from patient 7 prior to administration of telaprevir, FIG. 14A, read-out: IC50
  IC50: 0.45 µM
[2]; sample from patient 22, repeated relapse after combination interferon and ribavirin therapy (IFN resistant), FIG. 12A, read-out: IC50
  IC50: 0.024 µM
[2]; sample from patient 23, relapse of HCV infection (IFN resistant), FIG. 12B, read-out: IC50
  IC50: 0.00546 µM
[2]; sample from patient 25 after treatment with telaprevir, FIG. 14B, read-out: IC50
  IC50: 0.0064 µM
[2]; serum sample from patient 30, sofosbuvir resistant strain, FIG. 13C, read-out: IC50
  IC50: 0.004 µM
[2]; serum samples from 30 patients (Example 3), read-out: IC50 range for all patient samples
  IC50: 0.001 to 0.455 µM
[2]; patient sera of HCV genotypes G1, G3, G2, G4 or G6
  genotype coverage of anti-HCV activity: pan-genotypic activity
[2]; post-treatment sample of patient who relapsed after sofosbuvir-containing therapy, FIG. 24C
  sensitivity of sample to treatment: sensitive
